Reference: patent US6379959B1, “Metalocarboxypeptidase inhibitors and derived molecules used as antitumor agents” (Universitat Autonoma de Barcelona, priority 1996, dated 2002)
Where “and” joins values, the source holds several entries; their conditions need not be identical. Equal values may be shown once. Positions of bridges follow the written chain, without caps; N, C: chain ends. No end group written: not given here.

How the values were obtained:
trypsin = experiment: Gene expression analysis by Northern transfer, trypsin probe; assay type: cell-based, human; settings: for beta counts, Trypsin probe: 12 days, Capan-1 (control 511)
Description: To verify whether the PCI plays any role in signal transduction, studies of gene expression were carried out by Northern transfer. The probes were: β2-microglobulin, p53 and trypsin. The β2-microglobulin is a constitutive gene that is used as a sample loading control in the gel. p53 is a transcription factor which, among other functions, controls the state of the genomic DNA and the cell cycle (Bates, S. & Vousden, K. H. (1996) Curr. Opin. Genet. Develop., 6: 12-19). If the DNA is damaged, p53 induces its repair and, if it is excessively damaged, it provokes programmed cellular death (apoptosis). Trypsin is a marker of pancreatic cells of the acinar type. The trypsin is not expressed by all the tumoral cells and it is believed that it is expressed by the cells with metastatic power and/or invasive power (Fernández, E. et al., (1994) Cancer, 73: 2285-2295). The probes employed are described as follows:
In the first place, 3×10^6 cells of the human pancreatic adenocarcinoma cell line Capan-1 were placed in each one of the 12 flasks of 150 cm^2. […] They were maintained in culture for 12 days period, changing their medium every 4 days, adding fresh PCI. Once the treatment was completed, the cells were trypsinized and the sediment of the cells was kept at −80° C. Afterwards, the extraction of the RNA was carried out.
The quantifying of the hybridized filters with the respective probes was done using a Betascope 601 blot Analyzer counter (Betagen, USA). The counting time was 45 min for the hybridized filter with the probe p53 and β2-microglobuline and 2 h for the trypsin probe.
Assuming that the counts of the β2-Microglobuline are an indication of the total amount of poly(A^+) RNA, the data may be standardized as a percentage of counts of the band compared to the β2-microglobuline counts of the same cells, giving a value which depends on the abundance of the specific mRNA in relation to the total of mRNA.

EGF receptor = EGF receptor (Homo sapiens, UniProt P00533); experiment: Kinase activity (phosphorilation) of the EGF receptor, A431 cells; assay type: cell-based; parameters: endogenous in cells; host or cells: A431 (squamous cancer cell line)
Description: The material and protocol used have been those described by Donato, N. J. et al. (1989) J. Cell. Biochem., 41: 139-157.
1.c. Wash the cells twice more with tempered PBS and add new serum-free medium. Immediately after, add PCI to the concentration which is going to be studied in the cultures to be treated and incubate for 10 min at 37° C.
2.a. […] Incubate for 1 h in ice.
3.a. Prepare the reaction buffer. Each sample requires 50μL.
3.k. Dry the gel (for at least 3 h) and autoradiograph it for 10 min for the A431 cell line and 2-4 h for the Capan-1 cell line. Count the radiactivity of the filter using a beta counter.
The kinase activity in absence of PCI (basal) is taken as 100% and the values of kinase activity have been compared in various concentrations of PCI in relation to this basal activity.

[1] = test system: mouse melanoma B16HM cell line; experiment: In vitro invasiveness assay through Matrigel membrane; assay type: cell-based; settings: PCI 50 μg/mL
Description: In this test, with the aim of determining whether the PCI causes some difference in the invasive capacity of tumoral cells in vitro, the number of cells which had migrated through a membrane of Matrigel© in presence or absence of PCI in the culture medium was determined. The detailed protocol is as follows:
1. The wells of Matrigel© which are going to be employed are placed at room temperature on an empty plate of 24.
2. The wells are hydrated by adding […] of tempered full medium and kept for 1.5-2.0 h.
3. After the hydration, take the medium carefully out of the wells; later on, 200,000 cells are added to two wells, respectively. In one of them, we will add the medium in which the cells grow and in the other, medium with PCI.
4. After 17 h of culture in an incubator at 37° C., 90% of relative humidity and 5% of CO2, the samples are processed as follows:
4.11. Look at the microscope and count the number of cells that have migrated through the Matrigel filter.
The invasiveness tests in vitro were carried out with the mouse melanoma B16HM cell line selected as previously described (Barberàr-Guillem, E. et al. (1988) Invasion Metastasis, 8: 266-284). The wells were placed with medium in absence of PCI (control) and in presence of PCI, at a concentration of 50 μg/mL. […]

PCI: potato carboxypeptidase inhibitor, isoform IIa, obtained by recombinant DNA techniques in E. coli (SEQ ID NO.2) (EQHADPICNKPCKTHDDCSGAWFCQACWNSARTCGPYVG; disulfide 12-27, 18-34, 8-24)
lower transcription of trypsin, inverse quotient (control/treatment) (trypsin; 1 mg/mL PCI): 2.9 times | Trypsin/b2 (counts of one band in relation to those of β2-microglobuline) (trypsin; 1 mg/mL PCI (control 0.5351)): 0.1814 | beta counts, Trypsin probe (trypsin; 1 mg/mL PCI): 396 | lower transcription of trypsin, inverse quotient (control/treatment) (trypsin; 10 mg/mL PCI): 7.8 times | Trypsin/b2 (counts of one band in relation to those of β2-microglobuline) (trypsin; 10 mg/mL PCI (control 0.5351)): 0.0687 | beta counts, Trypsin probe (trypsin; 10 mg/mL PCI): 432 | Kinase activity (%) (EGF receptor; 1 ng/ml EGF + 1 mg/mL PCI): 126% | Kinase activity (%) (EGF receptor; 1 ng/ml EGF + 10 mg/mL PCI): 108% | Kinase activity (%) (EGF receptor; 1 ng/ml EGF + 50 mg/mL PCI): 53% | Kinase activity (%) (EGF receptor; basal, incubation with PCI 1 mg/mL, 10 min, 100% = absence of PCI): 68% | Kinase activity (%) (EGF receptor; basal, incubation with PCI 50 mg/mL, 10 min, 100% = absence of PCI): 78% and 61% and 80% and 77% | Kinase activity (%) (EGF receptor; basal, incubation with PCI 100 mg/mL, 10 min, 100% = absence of PCI): 29% | kinase activity of the receptor under EGF (EGF receptor; highest dose of PCI, 50 μg/mL, with EGF): reduced to half the basal activity | stimulation of the migration compared to the control [1]: 3.5 times | number of cells that passed through the Matrigel membrane ([1]; 17 h (control 29 cells)): 110 cells
